# Assay: Toxicokinetics of LLDT-8 in WT and liver-Cpr KO mice after a single oral dose (plasma and tissue levels by LC-MS/MS)
# Type: in vivo, mouse
# Details: for T1/2: mean ± SD, n = 5
# Experimental: For toxicokinetic experiments, mice (n = 5–6/group for each time point) were treated with a single dose of LLDT-8 at (0.5 or 1.0 mg/kg) by oral gavage, creating 4 treatment groups: 0.5 mg/kg LLDT-8-treated WT and KO mice, and 1.0 mg/kg LLDT-8-treated WT and KO mice. After LLDT-8 treatment, 20 μL blood samples were collected at 5, 10, 20, 30, 45, 60, 90, 120, and 180 min from tail vein. Plasma was separated by centrifugation at 3,000 rpm for 5 min and kept at −80°C until analysis. Tissues including the liver, kidney, testes, and epididymis were also collected from individual mice at 30 and 180 min after dosing and were weighed and homogenized in saline (1.0 g wet weight/mL) on ice. LLDT-8 was then extracted from the plasma or the tissue homogenates with an equal volume of ethyl acetate and dried under nitrogen. The residues were reconstituted in 50 μL of mobile phase for analysis.
# The quantification of LLDT-8 in samples was performed on Shimadzu 20A HPLC system (Shimadzu, Kyoto, Japan) equipped with an autosampler coupled to Shimadzu 8030 triple quadrupole mass spectrometer (Shimadzu, Kyoto, Japan). Separations were conducted under isocratic conditions. The mobile phase consisting of acetonitrile and water with 0.1% formic acid (50:50, v/v) was set at a flow rate of 0.2 mL/min. An electrospray interface in negative ionization mode was used. ESI source parameters were as followed: high purity drying-gas (N2) flow rate 8 L/min, temperature 400°C, nebulizer pressure 25 psi. Multiple reaction monitoring (MRM) was used to quantify LLDT-8 (m/z 421.20 [M+COO]- → 45.10, fragmentor 110 eV, collision energy −20 eV). Analytical data were processed using the labsolution software package (Shimadzu, Kyoto, Japan) consisting of qualitative and quantitative software.
# Standard curves for LLDT-8 were prepared by spiking known amounts of the LLDT-8 standard into plasma or tissue homogenate samples prepared from untreated mice. LLDT-8 concentrations in biological samples were determined by comparisons with standard curves. Pharmacokinetics were calculated using Kinetica software (version 4.4.1; Thermo Fisher Scientific Inc, Woburn, MA).
# [1] = KO mice, plasma, 1.0 mg/kg single oral dose
# [2] = WT mice, plasma, 1.0 mg/kg single oral dose
structure (smiles),measurement,setting,value
"CC(C)[C@]12O[C@H]1[C@@H]1O[C@]13[C@]1(O[C@H]1C[C@@]1(O)C4=C(CC[C@]31C)C(=O)OC4)[C@@H]2O [LLDT-8, (5R)-5-hydroxytriptolide]","LLDT-8 levels in liver, kidney, testis and epididymis of KO mice relative to WT mice",30 min after 1.0 mg/kg oral dose,2–3 folds
same,AUC,[1],753.52 ± 76.39 [ng/ml] × h
same,CL (oral clearance),[1],22.2 ± 2 mL/min/kg
same,Cmax,[1],57.97 ± 8.28 ng/mL
same,Tmax,[1],19.8 ± 6.6 min
same,T1/2,[1],35.4 ± 3.6 min
same,CL (oral clearance),[2],68.8 ± 8.83 mL/min/kg
same,Cmax,[2],29.95 ± 2.81 ng/mL
same,Tmax,[2],10.2 ± 0 min
same,T1/2,[2],18.6 ± 1.8 min
same,clearance in KO mice compared to WT mice,single oral dose,marked decrease
same,increase in AUC in KO mice,"single oral dose, KO vs WT",3.1 folds to WT mice
same,increase in Cmax in KO mice,"single oral dose, KO vs WT",1.9 folds to WT mice
same,increase in half-life in KO mice,"single oral dose, KO vs WT",1.9 folds to WT mice

# — publication PMC5702336, “Critical Role of Hepatic Cyp450s in the Testis-Specific Toxicity of (5R)-5-Hydroxytriptolide in C57BL/6 Mice” (Frontiers in Pharmacology, 2017)
